Source: patent publication US11951108B2, “Combination therapy for treating cancer” (Epizyme, Inc., priority 2016, dated 2024)

Key:
MDA-MB-231 = assay: In vitro combination study, breast cancer cell line MDA-MB-231
COV644* = assay: In vitro combination study, ovarian cancer cell line COV644
ES-2 = assay: In vitro combination study, ovarian cancer cell line ES-2
BT474 = assay: In vitro combination study, breast cancer cell line BT474
OVISE [1] = tested on: OVISE
BT-20 = assay: In vitro combination study, breast cancer cell line BT-20
TOV112D [2] = tested on: TOV112D
SUM52PE = assay: In vitro combination study, breast cancer cell line SUM52PE
MDA-MB-175VII = assay: In vitro combination study, breast cancer cell line MDA-MB-175VII
COV504 [3] = tested on: COV504
COV362 = assay: In vitro combination study, ovarian cancer cell line COV362
HCC1187 = assay: In vitro combination study, breast cancer cell line HCC1187
OVSAHO = assay: In vitro combination study, ovarian cancer cell line OVSAHO
HCC1143 [4] = tested on: HCC1143
DU4475 [5] = tested on: DU4475
OVMANA [6] = tested on: OVMANA
SNU840 [7] = tested on: SNU840
ZR-75-1 [8] = tested on: ZR-75-1
HCC1937 = assay: In vitro combination study, breast cancer cell line HCC1937
SK-BR-3 = assay: In vitro combination study, breast cancer cell line SK-BR-3; format: cell-based
CAMA-1 = assay: In vitro combination study, breast cancer cell line CAMA-1; format: cell-based; conditions: 10 μM
HCC1143 [9] = assay: In vitro combination study, breast cancer cell line HCC1143; conditions: 10 μM
HCC1806 = assay: In vitro combination study, breast cancer cell line HCC1806; format: cell-based
KURAMOCHI = assay: In vitro combination study, ovarian cancer cell line KURAMOCHI; conditions: read-out: Tazemetostat % inhibition at 20 μM
CAOV-3 = assay: In vitro combination study, ovarian cancer cell line CAOV-3; format: cell-based; conditions: Homo sapiens, read-out: Tazemetostat % inhibition at 20 μM, 20 μM
SUM1315MO2 = assay: In vitro combination study, breast cancer cell line SUM1315MO2; format: cell-based
OV-90 = assay: In vitro combination study, ovarian cancer cell line OV-90; conditions: Homo sapiens, OV-90, read-out: Tazemetostat % inhibition at 20 μM
SKOV3 = assay: In vitro combination study, ovarian cancer cell line SKOV3; conditions: 20 μM
OVCAR-3 = assay: In vitro combination study, ovarian cancer cell line OVCAR-3; format: cell-based; conditions: Homo sapiens, read-out: Tazemetostat % inhibition at 20 μM
ZR-75-1 [10] = assay: In vitro combination study, breast cancer cell line ZR-75-1
COV504 [11] = assay: cells; conditions: COV504, read-out: Tazemetostat % inhibition at 20 μM
SUM159PT = assay: In vitro combination study, breast cancer cell line SUM159PT; conditions: 10 μM
JH)S-4 = assay: In vitro combination study, ovarian cancer cell line JH)S-4; conditions: 20 μM
HCC1954 = assay: In vitro combination study, breast cancer cell line HCC1954; format: cell-based
DU4475 [12] = assay: In vitro combination study, breast cancer cell line DU4475; conditions: 10 μM
HCC1419 = assay: In vitro combination study, breast cancer cell line HCC1419; conditions: 10 μM
TOV112D [13] = assay: In vitro combination study, ovarian cancer cell line TOV112D; conditions: 20 μM
HCC38 = conditions: HCC38; 10 μM
COV434 = assay: cells; conditions: COV434, read-out: Tazemetostat % inhibition at 20 μM
MDA-MB-361 = assay: In vitro combination study, breast cancer cell line MDA-MB-361; format: cell-based
SNU840 [14] = assay: In vitro combination study, ovarian cancer cell line SNU840; conditions: SNU-840, read-out: Tazemetostat % inhibition at 20 μM
MDA-MB-436 = assay: In vitro combination study, breast cancer cell line MDA-MB-436; format: cell-based
OAW42 = assay: In vitro combination study, ovarian cancer cell line OAW42; conditions: Homo sapiens, OAW-42, read-out: Tazemetostat % inhibition at 20 μM
BT549 = assay: In vitro combination study, breast cancer cell line BT549; conditions: 10 μM
TOV21G = assay: In vitro combination study, ovarian cancer cell line TOV21G; format: cell-based; conditions: Homo sapiens, read-out: Tazemetostat % inhibition at 20 μM, 20 μM
OVISE [15] = assay: In vitro combination study, ovarian cancer cell line OVISE; conditions: read-out: Tazemetostat % inhibition at 20 μM
MCF-7 = assay: In vitro combination study, breast cancer cell line MCF-7; format: cell-based
RMUGS* = assay: In vitro combination study, ovarian cancer cell line RMUGS; conditions: 20 μM
MDA-MB-453 = assay: In vitro combination study, breast cancer cell line MDA-MB-453; format: cell-based; conditions: 10 μM
HCC1569 = assay: In vitro combination study, breast cancer cell line HCC1569
MDA-MB-468 = assay: In vitro combination study, breast cancer cell line MDA-MB-468
TYK-NU = assay: In vitro combination study, ovarian cancer cell line TYK-NU; format: cell-based; conditions: read-out: Tazemetostat % inhibition at 20 μM
A2780 = assay: In vitro combination study, ovarian cancer cell line A2780; conditions: Homo sapiens, A2780, read-out: Tazemetostat % inhibition at 20 μM
OVMANA [16] = assay: In vitro combination study, ovarian cancer cell line OVMANA; conditions: read-out: Tazemetostat % inhibition at 20 μM
[17] = ER/PR −/−, HER2 −, 7 day pre-treatment + 6 day co-treatment
[18] = ER/PR +/+, HER2 +, 7 day pre-treatment + 6 day co-treatment

SMILES: CN(Cc1cnc2nc(N)nc(N)c2n1)c1ccc(C(=O)N[C@@H](CCC(=O)O)C(=O)O)cc1 [Methotrexate]
- Synergy or antagonism of second agent with tazemetostat (IC50 shift of second agent) (MDA-MB-231; [17]): A (Antagonism)
- Synergy or antagonism of second agent with tazemetostat (IC50 shift of second agent) (COV644*; COV644*, 7+3 model): A (Antagonism)
- Synergy or antagonism of second agent with tazemetostat (IC50 shift of second agent) (ES-2; 4+3 model): A (Antagonism)
- Synergy or antagonism of second agent with tazemetostat (IC50 shift of second agent) (BT474; [18]): A (Antagonism)
- Synergy or antagonism of second agent with tazemetostat (IC50 shift of second agent) (OVISE [1]): A (key: B: Synergy > 4× IC50 shift; Synergy > 2× IC50 shift; No Effect; Antagonism; X: Not Tested)
- Synergy or antagonism of second agent with tazemetostat (IC50 shift of second agent) (BT-20; [17]): C (Synergy > 2× IC50 shift)
- Synergy or antagonism of second agent with tazemetostat (IC50 shift of second agent) (TOV112D [2]): A (key: B: Synergy > 4× IC50 shift; Synergy > 2× IC50 shift; No Effect; Antagonism; X: Not Tested)
- Synergy or antagonism of second agent with tazemetostat (IC50 shift of second agent) (SUM52PE; [17]): A (Antagonism)
- Synergy or antagonism of second agent with tazemetostat (IC50 shift of second agent) (MDA-MB-175VII; [18]): A (Antagonism)
- Synergy or antagonism of second agent with tazemetostat (IC50 shift of second agent) (COV504 [3]): A (key: B: Synergy > 4× IC50 shift; Synergy > 2× IC50 shift; No Effect; Antagonism; X: Not Tested)
- Synergy or antagonism of second agent with tazemetostat (IC50 shift of second agent) (COV362; COV362, 4+3 model): A (Antagonism)
- Synergy or antagonism of second agent with tazemetostat (IC50 shift of second agent) (HCC1187; [17]): A (Antagonism)
- Synergy or antagonism of second agent with tazemetostat (IC50 shift of second agent) (OVSAHO; 4+3 model): A (Antagonism)
- Synergy or antagonism of second agent with tazemetostat (IC50 shift of second agent) (HCC1143 [4]): A (key: B: Synergy > 4× IC50 shift; Synergy > 2× IC50 shift; No Effect; Antagonism; X: Not Tested)
- Synergy or antagonism of second agent with tazemetostat (IC50 shift of second agent) (DU4475 [5]): A (key: B: Synergy > 4× IC50 shift; Synergy > 2× IC50 shift; No Effect; Antagonism; X: Not Tested)
- Synergy or antagonism of second agent with tazemetostat (IC50 shift of second agent) (OVMANA [6]): A (key: B: Synergy > 4× IC50 shift; Synergy > 2× IC50 shift; No Effect; Antagonism; X: Not Tested)
- Synergy or antagonism of second agent with tazemetostat (IC50 shift of second agent) (SNU840 [7]): A (key: B: Synergy > 4× IC50 shift; Synergy > 2× IC50 shift; No Effect; Antagonism; X: Not Tested)
- Synergy or antagonism of second agent with tazemetostat (IC50 shift of second agent) (ZR-75-1 [8]): A (key: B: Synergy > 4× IC50 shift; Synergy > 2× IC50 shift; No Effect; Antagonism; X: Not Tested)
- Synergy or antagonism of second agent with tazemetostat (IC50 shift of second agent) (HCC1937; ER/PR −/−, HER2 +, 7 day pre-treatment + 6 day co-treatment): A (Antagonism)

SMILES: CCN(c1cc(-c2ccc(CN3CCOCC3)cc2)cc(C(=O)NCc2c(C)cc(C)[nH]c2=O)c1C)C1CCOCC1 [Tazemetostat, tazemetostat]
- Tazemetostat sensitivity at 10 μM (%) (SK-BR-3): 70%
- Tazemetostat sensitivity at 10 μM (%) (CAMA-1): 30%
- Tazemetostat sensitivity at 10 μM (%) (MDA-MB-231; 10 μM): 0%
- Tazemetostat sensitivity at 10 μM (%) (HCC1143 [9]): 0%
- inhibition at 20 µM (COV644*; read-out: Tazemetostat % inhibition at 20 μM): 10%
- Tazemetostat % inhibition at 20 μM (ES-2; 20 μM): 0%
- Tazemetostat sensitivity at 10 μM (%) (BT474; 10 μM): 0%
- Tazemetostat sensitivity at 10 μM (%) (HCC1806): 40%
- inhibition at 20 µM (KURAMOCHI): 20%
- inhibition at 20 µM (CAOV-3): 0%
- Tazemetostat sensitivity at 10 μM (%) (SUM1315MO2): 35%
- inhibition at 20 µM (OV-90): 15%
- Tazemetostat % inhibition at 20 μM (SKOV3): 15%
- Tazemetostat sensitivity at 10 μM (%) (SUM149PT): 30%
- Tazemetostat sensitivity at 10 μM (%) (BT-20; 10 μM): 0%
- inhibition at 20 µM (OVCAR-3): 0%
- Tazemetostat sensitivity at 10 μM (%) (ZR-75-1 [10]): 40%
- Tazemetostat sensitivity at 10 μM (%) (HCC1395): 25%
- inhibition at 20 µM (COV504 [11]): 30%
- Tazemetostat sensitivity at 10 μM (%) (SUM159PT): 50%
- Tazemetostat % inhibition at 20 μM (JH)S-4): −20%
- Tazemetostat sensitivity at 10 μM (%) (SUM52PE; 10 μM): 50%
- Tazemetostat sensitivity at 10 μM (%) (HCC1954): 0%
- Tazemetostat sensitivity at 10 μM (%) (DU4475 [12]): 35%
- Tazemetostat sensitivity at 10 μM (%) (MDA-MB-175VII; 10 μM): 10%
- Tazemetostat sensitivity at 10 μM (%) (HCC1419): 0%
- Tazemetostat % inhibition at 20 μM (TOV112D [13]): 20%
- Tazemetostat sensitivity at 10 μM (%) (HCC38): 20%
- inhibition at 20 µM (COV434): 50%
- inhibition at 20 µM (COV362; COV362, read-out: Tazemetostat % inhibition at 20 μM): 0%
- Tazemetostat sensitivity at 10 μM (%) (HCC1187; 10 μM): 0%
- Tazemetostat sensitivity at 10 μM (%) (HCC70): 35%
- Tazemetostat sensitivity at 10 μM (%) (HCC202): 0%
- inhibition at 20 µM (OVSAHO; Homo sapiens, read-out: Tazemetostat % inhibition at 20 μM): 0%
- Tazemetostat sensitivity at 10 μM (%) (MDA-MB-361): 10%
- inhibition at 20 µM (SNU840 [14]): 25%
- Tazemetostat sensitivity at 10 μM (%) (MDA-MB-436): 10%
- inhibition at 20 µM (OAW42): 15%
- Tazemetostat sensitivity at 10 μM (%) (BT549): 40%
- inhibition at 20 µM (TOV21G): 40%
- inhibition at 20 µM (OVISE [15]): 0%
- Tazemetostat sensitivity at 10 μM (%) (MCF-7): 50%
- Tazemetostat sensitivity at 10 μM (%) (MDA-MB-157): 0%
- Tazemetostat % inhibition at 20 μM (RMUGS*): −20%
- Tazemetostat sensitivity at 10 μM (%) (MDA-MB-453): 40%
- Tazemetostat sensitivity at 10 μM (%) (HCC1569): 20%
- Tazemetostat sensitivity at 10 μM (%) (EFM-19): 20%
- Tazemetostat sensitivity at 10 μM (%) (MDA-MB-468): 30%
- inhibition at 20 µM (TYK-NU): 0%
- Tazemetostat sensitivity at 10 μM (%) (HCC1937; 10 μM): 20%
- inhibition at 20 µM (A2780): 35%
- inhibition at 20 µM (OVMANA [16]): 20%
